Data reported in patent US10925851B2 (Regents of the University of Minnesota, priority 2018, dated 2021).
“And” between values parts separate entries of the source, which are not always exact repeats. Identical values can stand only once. Like-named read-outs stand apart in the source and are kept apart here.

Columns and labels:
mice [1] = test: Combination therapy with morphine, isobolographic analysis in tail-flick assay; conditions: for Dose Reduction Index (DRI) Morphine: in combination with tosedostat, 50% efficacy; for ED50: Mus musculus, sc
Neprilysin (NEP) = molecular target: T1, Neprilysin (NEP) (Homo sapiens, UniProt P08473); test: Neprilysin inhibition assay (Mca-[…](Dpn) FRET substrate); format: biochemical; conditions: for IC50: dose response, 3x dilutions from 100 μM; for inhibition at 10 µM: inhibitor 10 μM, read-out: NEP @ 10 μM (percent inhibition)
T1 construct: purchased Enzo Life Sciences
T1 sequence (P08473 whole entry, species assumed): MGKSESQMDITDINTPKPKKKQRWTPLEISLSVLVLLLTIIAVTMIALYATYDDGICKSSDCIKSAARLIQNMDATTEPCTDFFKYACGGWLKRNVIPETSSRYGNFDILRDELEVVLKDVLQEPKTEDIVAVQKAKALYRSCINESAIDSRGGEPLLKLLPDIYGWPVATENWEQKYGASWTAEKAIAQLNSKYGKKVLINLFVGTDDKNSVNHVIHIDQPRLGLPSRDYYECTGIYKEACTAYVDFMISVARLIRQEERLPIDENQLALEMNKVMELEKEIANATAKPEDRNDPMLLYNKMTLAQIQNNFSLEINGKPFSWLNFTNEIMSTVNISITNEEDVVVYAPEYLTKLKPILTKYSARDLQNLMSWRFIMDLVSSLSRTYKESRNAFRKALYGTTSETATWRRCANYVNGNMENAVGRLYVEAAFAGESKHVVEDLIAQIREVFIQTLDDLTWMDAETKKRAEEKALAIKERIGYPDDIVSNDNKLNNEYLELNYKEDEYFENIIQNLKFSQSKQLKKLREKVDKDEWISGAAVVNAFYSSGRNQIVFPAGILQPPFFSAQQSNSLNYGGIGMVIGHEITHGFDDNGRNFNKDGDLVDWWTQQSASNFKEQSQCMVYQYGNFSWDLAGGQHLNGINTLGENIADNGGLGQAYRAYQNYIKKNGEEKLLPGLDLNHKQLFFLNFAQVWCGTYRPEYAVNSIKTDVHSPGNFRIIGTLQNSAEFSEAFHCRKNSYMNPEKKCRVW
Protocol: Single concentration studies at 10 μM: Neprilysin inhibition assays were performed as described previously. The substrate Mca-[…](Dpn) and endopeptidase NEP were purchased from Enzo Life Sciences. […] Plate was mixed with a plate shaker at 1500 rpm for 30 seconds. The reaction was started with the addition of 6 μM of the FRET substrate and mixed for another 30 seconds at 1500 rpm. Mca fluorescence is quenched by Dpn until cleavage at Phe by NEP. The accumulation of the Mca was measured by exciting at 320 nm and reading the fluorescence at 405 nm on a Molecular Devices M5e plate reader for 40 minutes at room temperature. Percent inhibition is calculated in GraphPad Prism software using slopes in the linear range for each inhibitor at 10 μM.
Dose-Response Studies for NEP: Neprilysin inhibition assays were performed as described previously. The substrate Mca-[…](Dpn) and endopeptidase NEP were purchased from Enzo Life Sciences. Briefly, 0.5 nM NEP was incubated with 0.5 μL inhibitor. Compounds were tested at 3× dilutions from 100 μM final concentration in 50 mM HEPES pH 6.5 in 50 μL total volume in a black 384-well plate. Plate was mixed with a plate shaker at 1500 rpm for 30 seconds. The reaction was started with the addition of 6 μM of the FRET substrate and mixed for another 30 seconds at 1500 rpm. Mca fluorescence is quenched by Dpn until cleavage at Phe by NEP. The accumulation of the Mca was measured by exciting at 320 nm and reading the fluorescence at 405 nm on a Molecular Devices M5e plate reader for 40 minutes at room temperature. Steady state velocities were used to determine IC50 values by fitting the velocities vs. inhibitor concentration to the sigmoidal concentration-response curve (variable slope) using GraphPad Prism.

Aminopeptidase N (APN) = molecular target: T2, Aminopeptidase N (APN) (Homo sapiens, UniProt P15144); test: Aminopeptidase N enzyme assay (Ala-AMC substrate, fluorescence); format: biochemical; conditions: for inhibition at 10 µM: inhibitor 10 μM, read-out: APN @ 10 μM (percent inhibition); for IC50: dose response, 3x dilutions from 100 μM
T2 construct: purchased R&D Systems
T2 sequence (P15144 whole entry): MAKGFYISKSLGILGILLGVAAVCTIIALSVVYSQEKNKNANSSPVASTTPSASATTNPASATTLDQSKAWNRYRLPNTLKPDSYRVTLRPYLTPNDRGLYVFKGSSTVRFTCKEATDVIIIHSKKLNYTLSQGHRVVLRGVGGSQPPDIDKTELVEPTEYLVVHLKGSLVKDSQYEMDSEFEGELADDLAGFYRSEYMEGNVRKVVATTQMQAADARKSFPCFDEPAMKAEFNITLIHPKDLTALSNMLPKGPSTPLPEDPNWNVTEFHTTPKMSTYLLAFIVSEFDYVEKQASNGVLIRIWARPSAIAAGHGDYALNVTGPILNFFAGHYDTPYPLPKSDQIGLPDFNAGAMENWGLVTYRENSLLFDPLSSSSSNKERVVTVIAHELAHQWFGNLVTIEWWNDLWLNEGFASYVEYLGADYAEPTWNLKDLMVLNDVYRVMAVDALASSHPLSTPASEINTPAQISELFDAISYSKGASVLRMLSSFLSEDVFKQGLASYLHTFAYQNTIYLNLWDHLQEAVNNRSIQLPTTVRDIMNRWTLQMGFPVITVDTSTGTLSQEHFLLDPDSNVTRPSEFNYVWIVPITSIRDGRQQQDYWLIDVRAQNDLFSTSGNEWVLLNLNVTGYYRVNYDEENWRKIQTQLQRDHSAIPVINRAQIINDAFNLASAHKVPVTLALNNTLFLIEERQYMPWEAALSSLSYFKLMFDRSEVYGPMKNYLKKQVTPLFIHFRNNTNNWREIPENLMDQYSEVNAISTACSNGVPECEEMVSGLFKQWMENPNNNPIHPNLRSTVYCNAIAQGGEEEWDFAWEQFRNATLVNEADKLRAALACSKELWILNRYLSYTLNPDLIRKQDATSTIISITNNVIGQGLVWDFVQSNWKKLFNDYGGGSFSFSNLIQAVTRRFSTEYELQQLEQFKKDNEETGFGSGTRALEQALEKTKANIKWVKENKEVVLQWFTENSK
Protocol: Single concentration studies at 10 μM: Aminopeptidase N assays were performed as described previously. Aminopeptidase N was purchased from R&D Systems. Amino-4-methylcoumarin (Ala-AMC) was purchased from Bachem. Briefly, 0.1 μg/μL APN was incubated with 1 μL of 1 mM inhibitor in 50 mM Tris buffer, pH 7.5, in 100 μL volume in a black 384-well plate in duplicate. The reaction was started with the addition of Ala-AMC substrate at a final concentration of 100 μM. The cleavage accumulation AMC was measured by exciting at 380 nm and reading the fluorescence at 460 nm on a Molecular Devices SpectraMax i3 plate reader for 20 min at room temperature. Percent inhibition is calculated in GraphPad Prism software using slopes in the linear range for each inhibitor at 10 μM.
Dose-Response Studies for APN: Aminopeptidase N enzyme assays were performed as described previously.^26 Briefly, 0.1 μg/μL APN was incubated with 1 μL inhibitor in 50 mM Tris buffer, pH 7.5, in 50 μL volume in a black 384-well plate in duplicate. Compounds were tested at 3× dilutions from 100 μM final concentration. The reaction was started with the addition of Ala-AMC substrate at a final concentration of 100 μM. The accumulation of AMC was measured by exciting at 380 nm and reading the fluorescence at 460 nm on a Molecular Devices SpectraMax i3 plate reader for 30 min at room temperature. Steady state velocities were used to determine IC50 values by fitting the velocities vs. inhibitor concentration to the sigmoidal concentration-response curve (variable slope) using GraphPad Prism.

mice [2] = test: Co-administration of opioid antagonist naloxone in hot-plate and tail-flick assays; format: in vivo, mouse; conditions: naloxone s.c. 5 mg/Kg or i.c.v. 5 μg per mouse
Protocol: Naloxone dissolved in saline was either administered subcutaneously (s.c.; dosage: 5 mg/Kg) via an injection to the interscapular skin, or it was given intracerebroventricularly (5 μg per mouse).
Naloxone is a broad-spectrum opioid receptor antagonist. It is known to interact with, mu- (μ-), delta- (δ-), and kappa- (κ-) opioid receptors, with highest affinity for the μ receptors. […] Naloxone dissolved in saline was delivered subcutaneously (s.c.) via an injection to the interscapular skin.
5 mg/Kg naloxone dissolved in saline was administered subcutaneously (s.c.) via an injection to the interscapular skin. Analgesic efficacy for various time-points was determined in hot-plate and tail-flick assays as detailed above.

Row | Compound | activity against NEP (in words) (Neprilysin (NEP)) | IC50 (Neprilysin (NEP)) [µM] | inhibition at 10 µM (Neprilysin (NEP)) [%] | activity against APN (in words) (Aminopeptidase N (APN)) | inhibition at 10 µM (Aminopeptidase N (APN)) [%] | IC50 (Aminopeptidase N (APN)) | further results
1 | CN1CC[C@]23c4c5ccc(O)c4O[C@H]2[C@@H](O)C=C[C@H]3[C@H]1C5 [Morphine] |  |  |  |  |  |  | Dose Reduction Index (DRI) Morphine (mice [1]; 15 min): 4.47; Dose Reduction Index (DRI) Morphine (mice [1]; 30 min): 1.96; Dose Reduction Index (DRI) Morphine (mice [1]; 45 min): 2.43; Dose Reduction Index (DRI) Morphine (mice [1]; 60 min): 17.0; Dose Reduction Index (DRI) Morphine (mice [1]; 60 min, listed as morphine): 17; ED50 (mice [1]; 0.25 h, read-out: Morphine ED50 (±SEM)): 6.29 ± 12.7 mg/kg; ED50 (mice [1]; 0.5 h, read-out: Morphine ED50 (±SEM)): 3.52 ± 7.2 mg/kg; ED50 (mice [1]; 0.75 h, read-out: Morphine ED50 (±SEM)): 3.87 ± 2.04 mg/kg; ED50 (mice [1]; 1 h, read-out: ED50, given alone): 2.5 to 3 mg/kg; ED50 (mice [1]; 1 h, read-out: Morphine ED50 (±SEM)): 30 ± 204 mg/kg
2 | CC(C)C[C@H](NC(=O)[C@@H](O)[C@H](N)Cc1ccccc1)C(=O)O [Bestatin] | no activity against NEP | > 100 | 0 | inhibiting only APN | 77.6 |  | 
3 | C=CCN1CC[C@]23c4c5ccc(O)c4O[C@H]2C(=O)CC[C@@]3(O)[C@H]1C5 [Naloxone] |  |  |  |  |  |  | effect on latency, naloxone only groups (mice [2]): no effect on latency
4 | O=C(O)CNC(=O)C(CS)Cc1ccccc1 (centres unmarked) [Thiorphan] | inhibited only NEP |  | 90 | no activity against APN | 0 | > 100 µM | 
5 | CNC(=O)[C@H](Cc1ccccc1)NC(=O)[C@H](CC(C)C)[C@H](CSc1cccs1)C(=O)NO [Batimastat] | inhibit both APN and NEP | 4.48 | 60 | inhibit both APN and NEP |  | 0.21 µM and 0.212 µM | 
